Converted amounts (≈) assume the structure as drawn.
Legend:
[1] = in vivo; details: rat, 5 mg/kg
[2] = in vivo; details: rat, po, 5 mg/kg
[3] = tested on: Staphylococcus aureus; test: microbe, parasite or virus in culture; details: ATCC 49951
[4] = in vivo; details: rat, po, 5 mg/kg; remark: listed apart in the source
[5] = in vitro; details: human, plasma
[6] = tested on: Staphylococcus aureus; test: microbe, parasite or virus in culture; details: ATCC 49951; remark: listed apart in the source
[7] = physchem; details: octanol/water, pH 7.4
[8] = in vitro; details: CD1, mouse, plasma
[9] = tested on: HepG2; test: cells; details: Homo sapiens, HepG2, 72 h
[10] = tested on: K562; test: cells; details: Homo sapiens, K562, 72 h
[11] = in vitro; details: Sprague-Dawley, rat, plasma
[12] = physchem
[13] = in vivo; details: rat, iv
[14] = in vivo; details: rat, po, 5 mg/kg; remark: listed apart in the source
[15] = tested on: Streptococcus pneumoniae; test: microbe, parasite or virus in culture; details: ATCC 49619
[16] = in vivo; details: rat, iv, 3.35 mg/kg
[17] = in vitro; details: human, Caco-2
[18] = tested on: Enterococcus faecalis; test: microbe, parasite or virus in culture; details: ATCC 29212
[19] = in vivo; details: rat, po, 3.35 mg/kg
[20] = in vivo; details: rat, po, 3.35 mg/kg; remark: listed apart in the source
[21] = in vivo; details: rat, iv, 3.35 mg/kg; remark: listed apart in the source
[22] = in vivo; details: rat, po, 3.35 mg/kg; remark: listed apart in the source
[23] = physchem; details: buffer, pH 7
[24] = in vitro; details: human, Caco-2; remark: listed apart in the source
[25] = in vivo; details: rat, po, 3.35 mg/kg; remark: listed apart in the source
[26] = tested on: Staphylococcus aureus; test: microbe, parasite or virus in culture; details: ATCC 49951; remark: listed apart in the source
[27] = in vivo; details: rat, po, 5 mg/kg; remark: listed apart in the source
[28] = in vivo; details: rat, 5 mg/kg; remark: listed apart in the source
[29] = biological target: hERG (KCNH2) (Homo sapiens, UniProt Q12809); test: in vitro; details: CHO-K1 cells expressing human ERG
Sequence of hERG (KCNH2) (Q12809 whole entry): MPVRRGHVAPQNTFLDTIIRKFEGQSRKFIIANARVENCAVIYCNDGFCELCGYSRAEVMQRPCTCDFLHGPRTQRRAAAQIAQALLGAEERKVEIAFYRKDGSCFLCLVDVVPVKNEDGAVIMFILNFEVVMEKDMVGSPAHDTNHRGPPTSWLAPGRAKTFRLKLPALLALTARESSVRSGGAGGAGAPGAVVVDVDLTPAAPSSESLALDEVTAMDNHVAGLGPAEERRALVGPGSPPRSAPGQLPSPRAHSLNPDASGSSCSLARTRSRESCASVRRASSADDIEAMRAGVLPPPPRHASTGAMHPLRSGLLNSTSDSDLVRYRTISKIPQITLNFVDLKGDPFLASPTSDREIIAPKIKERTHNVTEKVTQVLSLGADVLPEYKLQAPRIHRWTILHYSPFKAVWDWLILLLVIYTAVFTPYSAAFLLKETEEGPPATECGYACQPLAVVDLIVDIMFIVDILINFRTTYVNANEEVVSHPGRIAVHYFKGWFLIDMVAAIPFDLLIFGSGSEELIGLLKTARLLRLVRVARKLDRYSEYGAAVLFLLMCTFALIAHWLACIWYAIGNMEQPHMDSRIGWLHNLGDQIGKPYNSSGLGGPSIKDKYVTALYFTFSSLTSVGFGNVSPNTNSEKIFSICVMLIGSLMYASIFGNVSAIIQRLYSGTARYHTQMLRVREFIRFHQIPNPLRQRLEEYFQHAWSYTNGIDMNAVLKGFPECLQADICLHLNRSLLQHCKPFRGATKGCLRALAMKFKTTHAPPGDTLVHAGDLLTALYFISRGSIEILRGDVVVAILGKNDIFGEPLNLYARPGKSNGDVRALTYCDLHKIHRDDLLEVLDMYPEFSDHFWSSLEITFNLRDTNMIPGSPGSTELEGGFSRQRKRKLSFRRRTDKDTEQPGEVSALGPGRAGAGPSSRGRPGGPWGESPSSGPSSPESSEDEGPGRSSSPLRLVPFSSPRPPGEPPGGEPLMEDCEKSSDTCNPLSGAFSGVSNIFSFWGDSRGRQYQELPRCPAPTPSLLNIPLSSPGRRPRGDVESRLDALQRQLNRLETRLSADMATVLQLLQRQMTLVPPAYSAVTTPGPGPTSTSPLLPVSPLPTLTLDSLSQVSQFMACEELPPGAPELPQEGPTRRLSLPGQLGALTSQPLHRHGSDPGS

| Compound | Vd at 24 h [1] [L/kg] | Tmax at 24 h [2] [h] | MIC [3] [µg/mL] | Cmax at 24 h [4] [nM] | fraction unbound at 4 h, 10 µM [5] | MIC [6] [µg/mL] | logD [7] | fraction unbound at 4 h, 10 µM [8] | EC50 [9] [µM] | EC50 [10] [µM] | fraction unbound at 4 h, 10 µM [11] | pKa [12] | half-life at 24 h [13] [h] | AUC(0-inf) at 24 h [14] [µM·h] | other results |
| --- | --- | --- | --- | --- | --- | --- | --- | --- | --- | --- | --- | --- | --- | --- | --- |
| Cc1c(N2CCC(C3(N)CC3)C2)c(F)cc2cc(C(=O)O)c(=O)n(C3CC3)c12 (configuration not stated) | 0.69 | 1 | 0.06 (≈ 0.156 µM) | 2000 | 0.22 | 1 (≈ 2.59 µM) | -0.97 | 0.48 | > 100 | > 100 | 0.25 | 5.2 | 1.32 | 7.62 | – |
| Cc1c(N2CC[C@@H](C3(N)CC3)C2)c(F)cc2cc(C(=O)O)c(=O)n(C3CC3)c12 | – | – | 0.06 (≈ 0.156 µM) | – | 0.21 | 1 (≈ 2.59 µM) | -0.34 | 0.49 | > 100 | > 100 | 0.3 | 5.1 | – | – | MIC [15]: ≤ 0.03 µg/mL; Vd at 24 h [16]: 0.75 L/kg; efflux ratio [17]: 0.91; MIC [18]: 0.25 µg/mL (≈ 0.649 µM); Tmax at 24 h [19]: 0.67 h; AUC(0-inf) at 24 h [20]: 5.85 µM·h; half-life at 24 h [21]: 2.56 h; bioavailability at 24 h [22]: 70%; solubility at 24 h [23]: 623 µg/mL (≈ 1620 µM); Papp A→B at 2 h, 10 µM [24]: 23.1 ×10⁻⁶ cm/s; Cmax at 24 h [25]: 1710 nM; MIC [26]: 0.5 µg/mL (≈ 1.3 µM) |
| Cc1c(N2CCC(C3(N)CC3)C2)c(F)cc2c(CC(=O)N(C)C)cc(=O)n(C3CC3)c12 (configuration not stated) | 3.3 | 1.17 | 2 (≈ 4.69 µM) | 78 | 0.57 | 1 (≈ 2.34 µM) | 0.27 | 0.58 | – | – | 0.33 | 8.5 | 1.61 | 0.26 | bioavailability at 24 h [27]: 32.5%; clearance at 24 h [28]: 49.3 mL/min/kg |
| C[C@H]1COc2c(N3C[C@@H]4CCCN[C@@H]4C3)c(F)cc3cc(C(=O)O)c(=O)n1c23 | – | – | 1 (≈ 2.58 µM) | – | – | 32 (≈ 82.6 µM) | -1.46 | – | – | – | – | 5 | – | – | – |
| Cc1c(N2CCC(C3(N)CC3)C2)c(F)cc2c(Cc3cc(O)no3)cc(=O)n(C3CC3)c12 (configuration not stated) | – | – | 8 (≈ 18.2 µM) | – | – | 8 (≈ 18.2 µM) | -0.9 | – | – | – | – | 3.9 | – | – | – |
| Cc1c(N2CC[C@@H](C3(N)CC3)C2)c(F)cc2cc(-c3noc(=O)[nH]3)c(=O)n(C3CC3)c12 | – | – | 0.125 (≈ 0.294 µM) | – | – | 0.125 (≈ 0.294 µM) | -0.32 | – | – | – | – | 5.4 | – | – | – |
| C[C@H]1COc2c(N3C[C@@H]4CCC[C@H](N)[C@H]4C3)c(F)cc3cc(C(=O)O)c(=O)n1c23 | – | – | 0.06 (≈ 0.149 µM) | – | – | 0.5 (≈ 1.25 µM) | -1.03 | – | – | – | – | 5.2 | – | – | – |
| C[C@H]1COc2c(N3CC4CCC[C@@H](N)[C@H]4C3)c(F)cc3cc(C(=O)O)c(=O)n1c23 (single isomer, unassigned) | – | – | ≤ 0.03 | – | – | 0.25 (≈ 0.623 µM) | -0.68 | – | – | – | – | 5.2 | – | – | – |
| C[C@H](N)[C@@H]1CCN(c2c(F)cc3cc(C(=O)O)c(=O)n4c3c2OC[C@@H]4C)C1 | 1.75 | 0.83 | 0.125 (≈ 0.333 µM) | 540 | 0.8 | 2 (≈ 5.33 µM) | -1.1 | 0.94 | > 100 | > 100 | 0.72 | 5 | 3.02 | 1.6 | MIC [15]: ≤ 0.03 µg/mL; efflux ratio [17]: 1.7; MIC [18]: 0.25 µg/mL (≈ 0.666 µM); bioavailability at 24 h [27]: 66%; solubility at 24 h [23]: 675 µg/mL (≈ 1800 µM); clearance at 24 h [28]: 18.5 mL/min/kg; Papp A→B at 2 h, 10 µM [24]: 2.7 ×10⁻⁶ cm/s; MIC [26]: 1 µg/mL (≈ 2.66 µM); inhibition at 300 µM [29]: 8.3% |
